In assay [1] the test system is H3K27me3 in WSU-DLCL2 cells. The experiment in a line: WSU-DLCL2 methylation assay (H3K27me3 ELISA). The class given is cell-based, human. To be noted: Homo sapiens, WSUDLCL2, 96 hours incubation, H3K27me3 normalised to total H3. For orientation: ELISA stands for enzyme-linked immunosorbent assay.
Source text: WSU-DLCL2 Methylation Assay
WSU-DLCL2 suspension cells were purchased from DSMZ (German Collection of Microorganisms and Cell Cultures, Braunschweig, Germany). RPMI/Glutamax Medium, Penicillin-Streptomycin, Heat Inactivated Fetal Bovine Serum, and D-PBS were purchased from Life Technologies, Grand Island, N.Y., USA. Extraction Buffer and Neutralization Buffer (5×) were purchased from Active Motif, Carlsbad, Calif., USA. Rabbit anti-Histone H3 antibody was purchased from Abcam, Cambridge, Mass., USA. Rabbit anti-H3K27me3 and HRP-conjugated anti-rabbit-IgG were purchased from Cell Signaling Technology, Danvers, Mass., USA. TMB “Super Sensitive” substrate was sourced from BioFX Laboratories, Owings Mills, Md., USA. IgG-free Bovine Serum Albumin was purchased from Jackson ImmunoResearch, West Grove, Pa., USA. PBS with Tween (10×PBST) was purchased from KPL, Gaithersburg, Md., USA. Sulfuric Acid was purchased from Ricca Chemical, Arlington, Tex., USA. Immulon ELISA plates were purchased from Thermo, Rochester, N.Y., USA. V-bottom cell culture plates were purchased from Corning Inc., Corning, N.Y., USA. V-bottom polypropylene plates were purchased from Greiner Bio-One, Monroe, N.C., USA.
WSU-DLCL2 suspension cells were maintained in growth medium (RPMI 1640 supplemented with 10% v/v heat inactivated fetal bovine serum and 100 units/mL penicillin-streptomycin) and cultured at 37° C. under 5% CO2. Under assay conditions, cells were incubated in Assay Medium (RPMI 1640 supplemented with 20% v/v heat inactivated fetal bovine serum and 100 units/mL penicillin-streptomycin) at 37° C. under 5% CO2 on a plate shaker.
WSU-DLCL2 cells were seeded in assay medium at a concentration of 50,000 cells per mL to a 96-well V-bottom cell culture plate with 200 μL per well. […] Plates were incubated on a titer-plate shaker at 37° C., 5% CO2 for 96 hours. After four days of incubation, plates were spun at 241×g for five minutes and medium was aspirated gently from each well of cell plate without disturbing cell pellet. Pellet was resuspended in: 200 μL DPBS and plates were spun again at 241×g for five minutes. The supernatant was aspirated and cold (4° C.) Extraction buffer (100 μL) was added per well. Plates were incubated at 4° C. on orbital shaker for two hours. Plates were spun at 3427×g×10 minutes. Supernatant (80 μL per well) was transferred to its respective well in 96 well V-bottom polypropylene plate. Neutralization Buffer 5× (20 μL per well) was added to V-bottom polypropylene plate containing supernatant. V-bottom polypropylene plates containing crude histone preparation (CHP) were incubated on orbital shaker×five minutes. Crude Histone Preparations were added (2 μL per well) to each respective well into duplicate 96 well ELISA plates containing 100 μL Coating Buffer (1×PBS+BSA 0.05% w/v). Plates were sealed and incubated overnight at 4° C. The following day, plates were washed three times with 300 μL per well 1×PBST. […] For H3K27me3 detection, 100 μL of HRP conjugated anti-rabbit IgG antibody diluted to 1:4000 in ELISA diluent was added per well. Plates were incubated at room temperature for 90 minutes. […] TMB substrate 100 μL was added per well. Histone H3 plates were incubated for five minutes at room temperature. H3K27me3 plates were incubated for 10 minutes at room temperature. The reaction was stopped with sulfuric acid 1N (100 μL per well). Absorbance for each plate was read at 450 nm.
Each plate included eight control wells DMSO only treatment (Minimum Inhibition) as well as eight control wells for maximum inhibition (Background wells).
The average of the ratio values for each control type was calculated and used to determine the percent inhibition for each test well in the plate. Test compound was serially diluted three-fold in DMSO for a total of ten test concentrations, beginning at 25 μM.
The target in assay [2] is wild-type EZH2 (PRC2 enzyme) (Homo sapiens (Human), UniProt Q15910). Put plainly: PRC2 enzyme assay on peptide substrate, wild-type EZH2 (H3K27me0 peptide, 3H-SAM Flashplate). The class given is biochemical. To be noted: wild-type PRC2 4 nM, read-out: WT EZH2 IC50.
Procedure: (§1) Human PRC2 enzymes were purified as 4-component enzyme complexes co-expressed in Spodoptera frugiperda (sf9) cells using a baculovirus expression system. […] The EED subunit contained an N-terminal FLAG tag that was used to purify the entire 4-component complex from sf9 cell lysates.
(§2) The assays were all performed in a buffer consisting of 20 mM bicine (pH=7.6), 0.5 mM DTT, 0.005% BSG and 0.002% Tween20, prepared on the day of use. […] DMSO (1 μL) was added to columns 11, 12, 23, 24, rows A-H for the maximum signal control, and SAH, a known product and inhibitor of PRC2 (1 μL) was added to columns 11, 12, 23, 24, rows I-P for the minimum signal control. A cocktail (40 μL) containing the wild-type PRC2 enzyme and H3K27me0 peptide or any of the Y641 mutant enzymes and H3K27me2 peptide was added by Multidrop Combi (Thermo). The compounds were allowed to incubate with PRC2 for 30 min at 25° C., then a cocktail (10 μL) containing a mixture of non-radioactive and ^3H-SAM was added to initiate the reaction (final volume=51 μL). […] The assays were stopped by the addition of non-radioactive SAM (10 μL) to a final concentration of 600 μM, which dilutes the ^3H-SAM to a level where its incorporation into the peptide substrate is no longer detectable. 50 of the reaction in the 384-well polypropylene plate was then transferred to a 384-well Flashplate and the biotinylated peptides were allowed to bind to the streptavidin surface for at least 1 h before being washed three times with 0.1% Tween20 in a Biotek ELx405 plate washer. The plates were then read in a PerkinElmer TopCount platereader to measure the quantity of ^3H-labeled peptide bound to the Flashplate surface, measured as disintegrations per minute (dpm) or alternatively, referred to as counts per minute (cpm).
The target of assay [3] is EZH2 Y641F mutant (PRC2 enzyme) (Homo sapiens (Human), UniProt Q15910, Y641F). The experiment in a line: PRC2 enzyme assay on peptide substrate, EZH2 Y641F mutant (H3K27me2 peptide, 3H-SAM Flashplate). It counts as biochemical. To be noted: Y641F mutant PRC2 4 nM.
Procedure: as §1, §2
In assay [4] the test system is WSU-DLCL2 cells. Put plainly: Cell proliferation analysis, WSU-DLCL2 (Cell Titer Glo). The conditions noted are these: Homo sapiens, WSUDLCL2, 144 h, 6 days incubation, ATP readout. It counts as cell-based. The text has this: Cell Proliferation Analysis
WSU-DLCL2 suspension cells were purchased from DSMZ (German Collection of Microorganisms and Cell Cultures, Braunschweig, Germany), RPMI/Glutamax Medium, Penicillin-Streptomycin, Heat Inactivated Fetal Bovine Serum were purchased from Life Technologies, Grand Island, N.Y., USA, V-bottom polypropylene 384-well plates were purchased from Greiner Bio-One, Monroe, N.C., USA. Cell culture 384-well white opaque plates were purchased from Perkin Elmer, Waltham, Mass., USA. Cell-Titer Glo® was purchased from Promega Corporation, Madison, Wis., USA. SpectraMax M5 plate reader was purchased from Molecular Devices LLC, Sunnyvale, Calif., USA.
WSU-DLCL2 suspension cells were maintained in growth medium (RPMI 1640 supplemented with 10% v/v heat inactivated fetal bovine serum and cultured at 37° C. under 5% CO2. Under assay conditions, cells were incubated in Assay Medium (RPMI 1640 supplemented with 20% v/v heat inactivated fetal bovine serum and 100 units/mL penicillin-streptomycin) at 37° C. under 5% CO2.
For the assessment of the effect of compounds on the proliferation of the WSU-DLCL2 cell line, exponentially growing cells were plated in 384-well white opaque plates at a density of 1250 cell/ml in a final volume of 50 μl of assay medium. A compound source plate was prepared by performing triplicate nine-point 3-fold serial dilutions in DMSO, beginning at 10 mM (final top concentration of compound in the assay was 20 μM and the DMSO was 0.2%). A 100 nL aliquot from the compound stock plate was added to its respective well in the cell plate. […] After addition of compounds, assay plates were incubated for 6 days at 37° C., 5% CO2, relative humidity >90% for 6 days. Cell viability was measured by quantization of ATP present in the cell cultures, adding 35 μl of Cell Titer Glo® reagent to the cell plates. Luminescence was read in the SpectraMax M5. The concentration inhibiting cell viability by 50% was determined using a 4-parametric fit of the normalized dose response curves.

Sequence of wild-type EZH2 (PRC2 enzyme) (Q15910 whole entry): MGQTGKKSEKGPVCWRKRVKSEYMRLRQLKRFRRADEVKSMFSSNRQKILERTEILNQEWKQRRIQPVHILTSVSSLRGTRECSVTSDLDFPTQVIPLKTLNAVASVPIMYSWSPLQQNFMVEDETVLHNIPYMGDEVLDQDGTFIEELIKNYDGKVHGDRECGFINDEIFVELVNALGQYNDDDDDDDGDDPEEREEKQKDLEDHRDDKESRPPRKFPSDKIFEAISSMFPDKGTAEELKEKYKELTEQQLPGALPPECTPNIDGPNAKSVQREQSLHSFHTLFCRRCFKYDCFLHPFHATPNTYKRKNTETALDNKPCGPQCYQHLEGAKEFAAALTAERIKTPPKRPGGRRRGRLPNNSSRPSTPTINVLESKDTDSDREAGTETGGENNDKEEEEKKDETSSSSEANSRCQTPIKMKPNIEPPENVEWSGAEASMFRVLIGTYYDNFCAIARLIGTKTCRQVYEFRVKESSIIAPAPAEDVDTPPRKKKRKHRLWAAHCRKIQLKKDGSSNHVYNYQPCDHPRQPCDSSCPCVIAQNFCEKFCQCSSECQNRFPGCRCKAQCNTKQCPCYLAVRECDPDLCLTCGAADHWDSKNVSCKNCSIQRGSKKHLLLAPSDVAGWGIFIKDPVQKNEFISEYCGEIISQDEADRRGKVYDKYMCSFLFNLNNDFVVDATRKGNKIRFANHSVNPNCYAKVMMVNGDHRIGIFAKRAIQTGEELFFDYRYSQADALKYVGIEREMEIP
Sequence of wild-type EZH2 (PRC2 enzyme) (O75530 whole entry partner): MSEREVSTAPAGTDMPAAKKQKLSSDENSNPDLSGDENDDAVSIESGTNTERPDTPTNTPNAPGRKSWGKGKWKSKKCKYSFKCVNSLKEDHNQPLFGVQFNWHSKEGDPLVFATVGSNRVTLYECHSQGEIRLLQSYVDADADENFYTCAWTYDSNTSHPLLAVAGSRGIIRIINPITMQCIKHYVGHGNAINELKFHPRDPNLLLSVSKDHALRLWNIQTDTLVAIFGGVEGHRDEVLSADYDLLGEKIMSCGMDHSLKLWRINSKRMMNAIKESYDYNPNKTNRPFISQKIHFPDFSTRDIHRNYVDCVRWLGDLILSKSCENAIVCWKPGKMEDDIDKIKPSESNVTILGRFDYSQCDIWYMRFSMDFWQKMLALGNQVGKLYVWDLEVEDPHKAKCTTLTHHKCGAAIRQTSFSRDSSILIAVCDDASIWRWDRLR
Sequence of wild-type EZH2 (PRC2 enzyme) (Q15022 whole entry partner): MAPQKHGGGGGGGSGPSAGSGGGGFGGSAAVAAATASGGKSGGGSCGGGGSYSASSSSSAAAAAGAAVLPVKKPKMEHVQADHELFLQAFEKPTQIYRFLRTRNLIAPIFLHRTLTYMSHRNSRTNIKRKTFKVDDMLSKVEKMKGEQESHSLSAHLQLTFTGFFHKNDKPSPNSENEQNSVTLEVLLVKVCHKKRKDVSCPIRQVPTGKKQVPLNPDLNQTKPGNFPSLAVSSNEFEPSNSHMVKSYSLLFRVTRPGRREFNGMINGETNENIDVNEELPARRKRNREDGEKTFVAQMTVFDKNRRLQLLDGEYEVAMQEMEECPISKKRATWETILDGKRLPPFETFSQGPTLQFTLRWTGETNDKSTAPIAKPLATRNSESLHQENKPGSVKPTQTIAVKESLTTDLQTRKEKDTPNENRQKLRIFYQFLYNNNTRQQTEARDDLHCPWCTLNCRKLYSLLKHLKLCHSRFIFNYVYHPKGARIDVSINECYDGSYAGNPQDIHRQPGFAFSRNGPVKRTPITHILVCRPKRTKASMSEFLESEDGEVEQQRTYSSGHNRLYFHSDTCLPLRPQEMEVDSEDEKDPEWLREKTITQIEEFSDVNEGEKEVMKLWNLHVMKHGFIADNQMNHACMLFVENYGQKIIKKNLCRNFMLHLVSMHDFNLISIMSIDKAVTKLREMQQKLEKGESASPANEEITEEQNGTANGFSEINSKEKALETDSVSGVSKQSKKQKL
Sequence of wild-type EZH2 (PRC2 enzyme) (Q09028 whole entry partner): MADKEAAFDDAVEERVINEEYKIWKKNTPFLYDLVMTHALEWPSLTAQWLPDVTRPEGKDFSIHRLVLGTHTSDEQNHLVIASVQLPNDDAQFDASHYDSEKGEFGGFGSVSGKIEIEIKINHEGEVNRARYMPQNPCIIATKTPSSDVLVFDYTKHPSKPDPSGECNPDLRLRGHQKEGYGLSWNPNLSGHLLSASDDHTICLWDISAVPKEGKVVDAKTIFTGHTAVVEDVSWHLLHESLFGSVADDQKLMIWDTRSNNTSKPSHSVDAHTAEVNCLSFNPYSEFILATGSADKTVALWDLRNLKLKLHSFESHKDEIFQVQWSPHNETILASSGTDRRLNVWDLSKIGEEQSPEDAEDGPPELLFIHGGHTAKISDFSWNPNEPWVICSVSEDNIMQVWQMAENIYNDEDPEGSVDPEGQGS
Sequence of EZH2 Y641F mutant (PRC2 enzyme) (Q15910 whole entry Y641F): as the sequence (Q15910 whole entry) above, with Y641F counted along it
Sequence of EZH2 Y641F mutant (PRC2 enzyme) (O75530 whole entry partner): as the sequence (O75530 whole entry partner) above
Sequence of EZH2 Y641F mutant (PRC2 enzyme) (Q15022 whole entry partner): as the sequence (Q15022 whole entry partner) above
Sequence of EZH2 Y641F mutant (PRC2 enzyme) (Q09028 whole entry partner): as the sequence (Q09028 whole entry partner) above

As for `CCn1[nH]c(=O)c(CNC(=O)c2cc(Cl)cc(N(CC)[C@H]3CC[C@H](N(C)Cc4cccc(OC)c4)CC3)c2C)c1C` [Compound 63, 5-chloro-3-(ethyl ((trans)-4-((3-methoxybenzyl)-(methyl)-amino)-cyclohexyl)amino)-N-((1-ethyl-5-methyl-3-oxo-2,3-dihydro-1H-pyrazol-4-yl)methyl)-2-methylbenzamide], the IC50 (in general, the concentration that inhibits the measured activity by half) in assay [1] was above 50000 nM; in assay [2], 46 nM; in assay [3], 12 nM; in assay [4], 1550 nM.

For the compound `CCn1nc(OC)c(CNC(=O)c2cc(Cl)cc(N(CC)[C@H]3CC[C@H](N(C)Cc4ccc(OC)cc4)CC3)c2C)c1C` [Compound 70, 5-chloro-3-(ethyl((trans)-4-((4-methoxybenzyl)-(methyl)-amino)-cyclohexyl)-amino)-N-((1-ethyl-3-methoxy-5-methyl-1H-pyrazol-4-yl)methyl)-2-methylbenzamide], the IC50 is 4060 nM in assay [1], 39 nM in assay [2], 12 nM in assay [3] and 3610 nM in assay [4].

Consider `CCN(c1cc(Cl)cc(C(=O)NCc2c(N3CCCC3)n(C)[nH]c2=O)c1C)[C@H]1CC[C@H](N(C)C)CC1` [Compound 81, 5-chloro-3-(((trans)-4-(dimethylamino)cyclohexyl) (ethyl)amino)-2-methyl-N-((1-methyl-3-oxo-5-(pyrrolidin-1-yl)-2,3-dihydro-1H-pyrazol-4-yl)methyl)benzamide], for which the IC50 in assay [1] amounted to 2190 nM; in assay [2], 18 nM; in assay [3], 5 nM; in assay [4] it was 1260 nM.

Turning to `CCOc1n[nH]c(C)c1CNC(=O)c1cc(Cl)cc(N(CC)[C@H]2CC[C@H](N(C)C)CC2)c1C` [Compound 85, 5-chloro-3-(((trans)-4-(dimethylamino)cyclohexyl)(ethyl)amino)-N-((3-ethoxy-5-methyl-1H-pyrazol-4-yl)methyl)-2-methylbenzamide], the IC50 is above 50000 nM in assay [1], 35200 nM in assay [2], 7520 nM in assay [3] and 6380 nM in assay [4].

As to `CCN(c1cc(Cl)cc(C(=O)NCc2c(OC)n(C)[nH]c2=O)c1C)[C@H]1CC[C@H](N(C)C)CC1` [Compound 86, 5-chloro-3-(ethyl((trans)-4-(dimethylamino)cyclohexyl]amino)-N-((5-methoxy-1-methyl-3-oxo-2,3-dihydro-1H-pyrazol-4-yl)methyl)-2-methylbenzamide], the 50% inhibitory concentration (IC50) was found to be 1790 nM in assay [1], 21 nM in assay [2], 1 nM in assay [3] and 1130 nM in assay [4].

For the origin of these results see US10150764B2, “Substituted benzene compounds” (Epizyme, Inc., priority 2013, dated 2018).
